In the supplement of paper PMC11451515:

Test system: SEM cells
Assay: cell viability relative to DMSO control; higher = less cytotoxic
Details: 48 h
Outline: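 NOMO1 or SEM cells were plated at 500 cells/well and P12-Ichikawa cells at 1000 cells/well in 1536-well plates (5 μl), after each leukemia line had been adapted for at least four passages in each medium. Pin dosing delivered library compounds in DMSO at 11 threefold concentrations, 47 μM to 0.79 nM. CellTiter-Glo One luminescence was read after 48 h at 37°C. Viability is reported as a per-plate percentage of DMSO wells, with cell-free wells as background.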

[1] = HPLM + 10% dialyzed FBS, 0.000781 µM
[2] = HPLM + 10% dialyzed FBS, 0.00234 µM
[3] = HPLM + 10% dialyzed FBS, 0.00702 µM
[4] = HPLM + 10% dialyzed FBS, 0.0211 µM
[5] = HPLM + 10% dialyzed FBS, 0.0632 µM
[6] = HPLM + 10% dialyzed FBS, 0.19 µM
[7] = HPLM + 10% dialyzed FBS, 0.569 µM
[8] = HPLM + 10% dialyzed FBS, 1.71 µM
[9] = HPLM + 10% dialyzed FBS, 5.12 µM
[10] = HPLM + 10% dialyzed FBS, 15.4 µM
[11] = HPLM + 10% dialyzed FBS, 46.1 µM
[12] = RPMI 5 mM glucose + 10% dialyzed FBS, 0.000781 µM
[13] = RPMI 5 mM glucose + 10% dialyzed FBS, 0.00234 µM
[14] = RPMI 5 mM glucose + 10% dialyzed FBS, 0.00702 µM
[15] = RPMI 5 mM glucose + 10% dialyzed FBS, 0.0211 µM
[16] = RPMI 5 mM glucose + 10% dialyzed FBS, 0.0632 µM
[17] = RPMI 5 mM glucose + 10% dialyzed FBS, 0.19 µM
[18] = RPMI 5 mM glucose + 10% dialyzed FBS, 0.569 µM
[19] = RPMI 5 mM glucose + 10% dialyzed FBS, 1.71 µM
[20] = RPMI 5 mM glucose + 10% dialyzed FBS, 5.12 µM
[21] = RPMI 5 mM glucose + 10% dialyzed FBS, 15.4 µM
[22] = RPMI 5 mM glucose + 10% dialyzed FBS, 46.1 µM
[23] = RPMI 5 mM glucose + 10% FBS, 0.000781 µM
[24] = RPMI 5 mM glucose + 10% FBS, 0.00234 µM
[25] = RPMI 5 mM glucose + 10% FBS, 0.00702 µM
[26] = RPMI 5 mM glucose + 10% FBS, 0.0211 µM
[27] = RPMI 5 mM glucose + 10% FBS, 0.0632 µM
[28] = RPMI 5 mM glucose + 10% FBS, 0.19 µM
[29] = RPMI 5 mM glucose + 10% FBS, 0.569 µM
[30] = RPMI 5 mM glucose + 10% FBS, 1.71 µM
[31] = RPMI 5 mM glucose + 10% FBS, 5.12 µM
[32] = RPMI 5 mM glucose + 10% FBS, 15.4 µM
[33] = RPMI 5 mM glucose + 10% FBS, 46.1 µM

Compound | cell viability [1] [%] | cell viability [2] [%] | cell viability [3] [%] | cell viability [4] [%] | cell viability [5] [%] | cell viability [6] [%] | cell viability [7] [%] | cell viability [8] [%] | cell viability [9] [%] | cell viability [10] [%] | cell viability [11] [%] | cell viability [12] [%] | cell viability [13] [%] | cell viability [14] [%] | cell viability [15] [%] | cell viability [16] [%] | cell viability [17] [%] | cell viability [18] [%] | cell viability [19] [%] | cell viability [20] [%] | cell viability [21] [%] | cell viability [22] [%] | cell viability [23] [%] | cell viability [24] [%] | cell viability [25] [%] | cell viability [26] [%] | cell viability [27] [%] | cell viability [28] [%] | cell viability [29] [%] | cell viability [30] [%] | cell viability [31] [%] | cell viability [32] [%] | cell viability [33] [%]
CC(C)c1ccccc1Cc1cc(C(=O)Nc2ccc([S+](=O)([O-])c3ccccc3C(C)(C)C)cc2)c(O)c(O)c1O | 104 | 127 | 116 | 106 | 113 | 101 | 109 | 115 | 68.6 | 94.2 | 94.6 | 129 | 118 | 120 | 105 | 120 | 112 | 138 | 123 | 32.7 | 69.8 | 92.1 |  |  |  |  |  |  |  |  |  |  | 
CN1C(=O)/C=C(/NCCN(CCO)CCCC2=CC=C(C=C2)[N+]([O-])=O)N(C)C1=O | 104 | 113 | 121 | 114 | 108 | 136 | 121 | 119 | 120 | 108 | 66.6 | 103 | 123 | 135 | 111 | 144 | 138 | 136 | 137 | 121 | 107 | 50.8 | 112 | 111 | 131 | 118 | 109 | 138 | 133 | 123 | 95.2 | 105 | 55
CC(C)C[C@H](NC(=O)[C@H](Cc1ccccc1)NC(=O)c1cnccn1)B(O)O | 82.8 | 88.2 | 95.9 | 46.6 | 5.6 | 4.11 | 3.83 | 3.37 | 2.58 | 1.95 | 1.04 | 90.4 | 84.7 | 84.5 | 31.1 | 6.17 | 4.26 | 4.12 | 3.78 | 3.01 | 2.1 | 1.1 | 90.9 | 102 | 113 | 38.4 | 6.07 | 3.74 | 3.71 | 3.19 | 2.6 | 1.56 | 0.977
CC(=O)[C@H]1CC[C@H]2[C@@H]3CCC4=CC(=O)CC[C@]4(C)[C@H]3CC[C@]12C | 69 | 83.5 | 89.4 | 92.3 | 82.1 | 102 | 103 | 97 | 88.7 | 88.1 | 92.7 | 108 | 92.7 | 103 | 109 | 103 | 119 | 106 | 117 | 90.8 | 81.7 | 90.7 | 98 | 96.9 | 102 | 113 | 113 | 116 | 120 | 106 | 96.7 | 101 | 92.8
